Data: patent EP1914230B1 (The Arizona Board of Regents on behalf of the University of …, priority 2001, dated 2003)
pIC50: −log10 of the molar value.

Legend:
[1] = target: phosphatidylinositol-3-kinase; test: PI-3 kinase inhibition; type: biochemical
Description: (§1) Highlighted are the compounds being made for antitumor testing.

C57BL6 mice = conditions: relative to wortmannin as 1.0; for Liver toxicity relative to wortmannic: mean percent increase in serum ALT and AST at the MTD or highest dose tested; for Lymphocyte toxicity relative to wortmannin: percent decrease in lymphocyte counts at the MTD or highest dose tested
Description: as §1

Structure (SMILES)	pIC50 [1]	Liver toxicity relative to wortmannic (C57BL6 mice)	Lymphocyte toxicity relative to wortmannin (C57BL6 mice)
COC[C@H]1OC(=O)c2coc3c2[C@@]1(C)C1=C(C3=O)[C@@H]2CCC(=O)[C@@]2(C)C[C@H]1OC(C)=O [wortmannin]	9.52	–	–
COC[C@H]1OC(=O)/C(=C/NC(C)C(=O)O)C2=C(O)C(=O)C3=C([C@H](OC(C)=O)C[C@]4(C)C(=O)CC[C@@H]34)[C@]21C (stereo partly drawn) [DJM2-177]	–	0.2	2.0
COC[C@H]1OC(=O)/C(=C/SCc2ccccc2)C2=C(O)C(=O)C3=C([C@H](OC(C)=O)C[C@]4(C)C(=O)CC[C@@H]34)[C@]21C [DJM2-170]	–	1.7	1.1
COC[C@H]1OC(=O)/C(=C/NCC(N)=O)C2=C(O)C(=O)C3=C([C@H](OC(C)=O)C[C@]4(C)C(=O)CC[C@@H]34)[C@]21C [DJM2-190]	–	–	0.6
